Data from patent US11168086B2, “Methods of synthesizing pyrazine compounds” (Hoffmann-La Roche Inc., priority 2015, dated 2021).

Test system: HBV
Test: HBV inhibition assay: anti-HBV activity in vitro in HepG2.2.15 cells (extracellular HBV DNA by qPCR)
Type: cell-based
Conditions: five days after compound treatment, extracellular HBV DNA in culture supernatant by qPCR, concentration at which HBV replication is inhibited by 50%
Summary of the method: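 HepG2.2.15 cells (stably carrying HBV genome) treated with half-log serially diluted compounds at 0.5% DMSO final for five days. Extracellular HBV DNA in supernatant quantified by qPCR after Proteinase K digestion; EC50 is concentration giving 50% inhibition of replication.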

C#Cc1cc(NC(=O)N2CCn3cnc(-c4ccc(F)cc4F)c3C2)ccc1F [Example 134, 1-(2,4-difluorophenyl)-N-(3-ethynyl-4-fluoro-phenyl)-6,8-dihydro-5H-imidazo[1,5-a]pyrazine-7-carboxamide]
EC50 (Hepatitis B virus, 120 h): 85 nM

C[C@H]1Cn2ncc(N3CC4(CCC4)OC3=O)c2CN1C(=O)Nc1cc(F)c(F)c(F)c1 [Example 332, (6S)-6-methyl-3-(6-oxo-5-oxa-7-azaspiro[3.4]octan-7-yl)-N-(3,4,5-trifluorophenyl)-6,7-dihydro-4H-pyrazolo[1,5-a]pyrazine-5-carboxamide]
EC50 (Hepatitis B virus, 120 h): 11 nM

Cc1cnn(-c2cnn3c2CN(C(=O)Nc2ccc(F)c(Cl)c2)CC3)c1 [Example 171, N-(3-chloro-4-fluoro-phenyl)-3-(4-methylpyrazol-1-yl)-6,7-dihydro-4H-pyrazolo[1,5-a]pyrazine-5-carboxamide]
EC50 (Hepatitis B virus, 120 h): 45 nM

CC1Cn2ncc(C3CCCC3)c2CN1C(=O)Nc1cc(F)c(F)c(F)c1 (stereo not drawn) [Example 204, 3-cyclopentyl-6-methyl-N-(3,4,5-trifluorophenyl)-6,7-dihydro-4H-pyrazolo[1,5-a]pyrazine-5-carboxamide]
EC50 (Hepatitis B virus, 120 h): 36 nM

CC1Cn2ncc(N3CCCC3=O)c2CN1C(=O)Nc1ccc(F)c(C(F)(F)F)c1 (stereo not drawn) [Example 203, N-[4-fluoro-3-(trifluoromethyl)phenyl]-6-methyl-3-(2-oxopyrrolidin-1-yl)-6,7-dihydro-4H-pyrazolo[1,5-a]pyrazine-5-carboxamide]
EC50 (Hepatitis B virus, 120 h): 97 nM

CCOC(=O)N1CC2(CC(=O)N(c3cnn4c3CN(C(=O)Nc3cc(F)c(F)c(F)c3)[C@@H](C)C4)C2)C1 [Example 334, ethyl 6-[(6S)-6-methyl-5-[(3,4,5-trifluorophenyl)carbamoyl]-6,7-dihydro-4H-pyrazolo[1,5-a]pyrazin-3-yl]-7-oxo-2,6-diazaspiro[3.4]octane-2-carboxylate]
EC50 (Hepatitis B virus, 120 h): 22 nM

C[C@H]1Cn2ncc(N3CC(C(=O)N4CCC(F)(F)C4)CC3=O)c2CN1C(=O)Nc1cc(F)c(F)c(F)c1 (stereo partly drawn) [Example 398, (6S)-3-[4-(3,3-difluoropyrrolidine-1-carbonyl)-2-oxo-pyrrolidin-1-yl]-6-methyl-N-(3,4,5-trifluorophenyl)-6,7-dihydro-4H-pyrazolo[1,5-a]pyrazine-5-carboxamide]
EC50 (Hepatitis B virus, 120 h): 80 nM

C[C@H]1Cn2ncc(N3CC(N(C)c4ncccn4)CC3=O)c2CN1C(=O)Nc1cc(F)c(F)c(F)c1 (stereo partly drawn) [Example 363, (6S)-6-methyl-3-[4-[methyl(pyrimidin-2-yl)amino]-2-oxo-pyrrolidin-1-yl]-N-(3,4,5-trifluorophenyl)-6,7-dihydro-4H-pyrazolo[1,5-a]pyrazine-5-carboxamide]
EC50 (Hepatitis B virus, 120 h): 9 nM

O=C(Nc1cc(F)c(F)c(F)c1)N1CCn2cnc(-c3ccc(F)cc3F)c2C1 [Example 138, 1-(2,4-difluorophenyl)-N-(3,4,5-trifluorophenyl)-6,8-dihydro-5H-imidazo[1,5-a]pyrazine-7-carboxamide]
EC50 (Hepatitis B virus, 120 h): 37 nM

CC1CCOC(=O)N1c1cnn2c1CN(C(=O)Nc1cc(F)c(F)c(F)c1)[C@@H](C)C2 (stereo partly drawn) [Example 426, (6S)-6-methyl-3-(4-methyl-2-oxo-1,3-oxazinan-3-yl)-N-(3,4,5-trifluorophenyl)-6,7-dihydro-4H-pyrazolo[1,5-a]pyrazine-5-carboxamide]
EC50 (Hepatitis B virus, 120 h): 29 nM

CC1Cn2ncc(-c3ccc(F)cn3)c2CN1C(=O)Nc1ccc(F)c(C#N)c1 (stereo not drawn) [Example 100, N-(3-cyano-4-fluoro-phenyl)-3-(5-fluoro-2-pyridyl)-6-methyl-6,7-dihydro-4H-pyrazolo[1,5-a]pyrazine-5-carboxamide]
EC50 (Hepatitis B virus, 120 h): 61 nM

CC1Cn2ncc(-n3cc(C#N)cn3)c2CN1C(=O)Nc1ccc(F)c(Cl)c1 (stereo not drawn) [Example 200, N-(3-chloro-4-fluoro-phenyl)-3-(4-cyanopyrazol-1-yl)-6-methyl-6,7-dihydro-4H-pyrazolo[1,5-a]pyrazine-5-carboxamide]
EC50 (Hepatitis B virus, 120 h): 38 nM

C[C@H]1Cn2ncc(N3CC(c4ccccc4)NC3=O)c2CN1C(=O)Nc1cc(F)c(F)c(F)c1 (stereo partly drawn) [Example 329, (6S)-6-methyl-3-(2-oxo-4-phenyl-imidazolidin-1-yl)-N-(3,4,5-trifluorophenyl)-6,7-dihydro-4H-pyrazolo[1,5-a]pyrazine-5-carboxamide]
EC50 (Hepatitis B virus, 120 h): 4 nM

CC1CC(=O)N(c2cnn3c2CN(C(=O)Nc2ccc(F)c(Cl)c2)[C@@H](C)C3)C1 (stereo partly drawn) [Example 254, (6S)—N-(3-chloro-4-fluoro-phenyl)-6-methyl-3-(4-methyl-2-oxo-pyrrolidin-1-yl)-6,7-dihydro-4H-pyrazolo[1,5-a]pyrazine-5-carboxamide]
EC50 (Hepatitis B virus, 120 h): 39 nM

O=C(Nc1ccc(F)c(Cl)c1)N1CCn2ncc(-c3ccc(F)cc3F)c2C1 [Example 50, N-(3-chloro-4-fluoro-phenyl)-3-(2,4-difluorophenyl)-6,7-dihydro-4H-pyrazolo[1,5-a]pyrazine-5-carboxamide]
EC50 (Hepatitis B virus, 120 h): 36 nM

C[C@H]1Cn2ncc(N3CC(c4cocn4)OC3=O)c2CN1C(=O)Nc1cc(F)c(F)c(F)c1 (stereo partly drawn) [Example 348, (6S)-6-methyl-3-(5-oxazol-4-yl-2-oxo-oxazolidin-3-yl)-N-(3,4,5-trifluorophenyl)-6,7-dihydro-4H-pyrazolo[1,5-a]pyrazine-5-carboxamide]
EC50 (Hepatitis B virus, 120 h): 94 nM

C[C@H]1Cn2ncc(N3CC4(CCC4)C(O)C3=O)c2CN1C(=O)Nc1cc(F)c(F)c(F)c1 (stereo partly drawn) [Example 422, (6S)-3-(8-hydroxy-7-oxo-6-azaspiro[3.4]octan-6-yl)-6-methyl-N-(3,4,5-trifluorophenyl)-6,7-dihydro-4H-pyrazolo[1,5-a]pyrazine-5-carboxamide]
EC50 (Hepatitis B virus, 120 h): 65 nM

C[C@H]1CN(C(=O)C2CC(=O)N(c3cnn4c3CN(C(=O)Nc3cc(F)c(F)c(F)c3)[C@@H](C)C4)C2)CCO1 (stereo partly drawn) [Example 395, (6S)-6-methyl-3-[4-[(2S)-2-methylmorpholine-4-carbonyl]-2-oxo-pyrrolidin-1-yl]-N-(3,4,5-trifluorophenyl)-6,7-dihydro-4H-pyrazolo[1,5-a]pyrazine-5-carboxamide]
EC50 (Hepatitis B virus, 120 h): 88 nM

C[C@H]1Cn2ncc(N3CC(C(F)(F)F)CC3=O)c2CN1C(=O)Nc1ccc(F)c(Cl)c1 (stereo partly drawn) [Example 255, (6S)—N-(3-chloro-4-fluoro-phenyl)-6-methyl-3-[2-oxo-4-(trifluoromethyl)pyrrolidin-1-yl]-6,7-dihydro-4H-pyrazolo[1,5-a]pyrazine-5-carboxamide]
EC50 (Hepatitis B virus, 120 h): 28 nM

C[C@H]1[C@H](C)n2ncc(N3CCCC3=O)c2CN1C(=O)Nc1cc(F)c(F)c(F)c1 [Example 251, (6S,7S)-6,7-dimethyl-3-(2-oxopyrrolidin-1-yl)-N-(3,4,5-trifluorophenyl)-6,7-dihydro-4H-pyrazolo[1,5-a]pyrazine-5-carboxamide]
EC50 (Hepatitis B virus, 120 h): 45 nM

C[C@H]1Cn2ncc(N3CC(C)(C(=O)N4CCC(F)(F)CC4)CC3=O)c2CN1C(=O)Nc1cc(F)c(F)c(F)c1 (stereo partly drawn) [Example 401, (6S)-3-[4-(4,4-difluoropiperidine-1-carbonyl)-4-methyl-2-oxo-pyrrolidin-1-yl]-6-methyl-N-(3,4,5-trifluorophenyl)-6,7-dihydro-4H-pyrazolo[1,5-a]pyrazine-5-carboxamide]
EC50 (Hepatitis B virus, 120 h): 88 nM

C[C@H]1Cn2ncc(N3CC(C)(C)NC3=O)c2CN1C(=O)Nc1ccc(F)c(Cl)c1 [Example 245, (6S)—N-(3-chloro-4-fluoro-phenyl)-3-(4,4-dimethyl-2-oxo-imidazolidin-1-yl)-6-methyl-6,7-dihydro-4H-pyrazolo[1,5-a]pyrazine-5-carboxamide]
EC50 (Hepatitis B virus, 120 h): 53 nM

C[C@H]1Cn2ncc(N3CC(c4ccccc4)C(O)C3=O)c2CN1C(=O)Nc1cc(F)c(F)c(F)c1 (single isomer, unassigned) [Example 438-2]
EC50: 108 nM

Cc1noc(C2(C)CC(=O)N(c3cnn4c3CN(C(=O)Nc3cc(F)c(F)c(F)c3)[C@@H](C)C4)C2)n1 (stereo partly drawn) [Example 405, (6S)-6-methyl-3-[4-methyl-4-(3-methyl-1,2,4-oxadiazol-5-yl)-2-oxo-pyrrolidin-1-yl]-N-(3,4,5-trifluorophenyl)-6,7-dihydro-4H-pyrazolo[1,5-a]pyrazine-5-carboxamide]
EC50 (Hepatitis B virus, 120 h): 10 nM

C[C@H]1Cn2ncc(N3CCOCC3=O)c2CN1C(=O)Nc1ccc(F)c(Cl)c1 [Example 364, (6S)—N-(3-chloro-4-fluoro-phenyl)-6-methyl-3-(3-oxomorpholin-4-yl)-6,7-dihydro-4H-pyrazolo[1,5-a]pyrazine-5-carboxamide]
EC50 (Hepatitis B virus, 120 h): 28 nM

C[C@H]1Cn2ncc(N3CC(C#N)(CO)CC3=O)c2CN1C(=O)Nc1cc(F)c(F)c(F)c1 (stereo partly drawn) [Example 360, (6S)-3-[4-cyano-4-(hydroxymethyl)-2-oxo-pyrrolidin-1-yl]-6-methyl-N-(3,4,5-trifluorophenyl)-6,7-dihydro-4H-pyrazolo[1,5-a]pyrazine-5-carboxamide]
EC50 (Hepatitis B virus, 120 h): 43 nM

C[C@H]1Cn2ncc(N3CC(C)(C)OC3=O)c2CN1C(=O)Nc1ccnc(C(F)F)c1 [Example 272, (6S)—N-[2-(difluoromethyl)-4-pyridyl]-3-(5,5-dimethyl-2-oxo-oxazolidin-3-yl)-6-methyl-6,7-dihydro-4H-pyrazolo[1,5-a]pyrazine-5-carboxamide]
EC50 (Hepatitis B virus, 120 h): 104 nM

C[C@H]1Cn2ncc(N3CC4(CCOCC4)CC3=O)c2CN1C(=O)Nc1ccc(F)c(Cl)c1 [Example 296, (6S)—N-(3-chloro-4-fluoro-phenyl)-6-methyl-3-(3-oxo-8-oxa-2-azaspiro[4.5]decan-2-yl)-6,7-dihydro-4H-pyrazolo[1,5-a]pyrazine-5-carboxamide]
EC50 (Hepatitis B virus, 120 h): 30 nM

C[C@H]1Cn2ncc(N3CC(c4cncnc4)CC3=O)c2CN1C(=O)Nc1cc(F)c(F)c(F)c1 (stereo partly drawn) [Example 413, (6S)-6-methyl-3-(2-oxo-4-pyrimidin-5-yl-pyrrolidin-1-yl)-N-(3,4,5-trifluorophenyl)-6,7-dihydro-4H-pyrazolo[1,5-a]pyrazine-5-carboxamide]
EC50 (Hepatitis B virus, 120 h): 76 nM

C[C@H]1Cn2ncc(N3CC(c4nnco4)CC3=O)c2CN1C(=O)Nc1cc(F)c(F)c(F)c1 (stereo partly drawn) [Example 282, (6S)-6-methyl-3-[4-(1,3,4-oxadiazol-2-yl)-2-oxo-pyrrolidin-1-yl]-N-(3,4,5-trifluorophenyl)-6,7-dihydro-4H-pyrazolo[1,5-a]pyrazine-5-carboxamide]
EC50 (Hepatitis B virus, 120 h): 57 nM
